The record followed here is patent US12642270B2, “Substituted thiophene carboxamides, thiophene carboxylic acids and derivatives thereof” (Bayer Aktiengesellschaft, priority 2019, dated 2026).

The first data set in a line: Log P by HPLC on reversed phase columns (EEC directive 79/831 Annex V.A8). Type of data set: physicochemical. Conditions: method [a]. The method in brief: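 Reversed-phase HPLC per EEC 79/831 Annex V.A8, LC-UV with 10→95% acetonitrile linear gradient; eluent [a] 0.1% formic acid (acidic), [b] 0.001 M ammonium acetate (neutral), [c] 0.1% phosphoric acid (acidic). Calibrated with C3–C16 straight-chain alkan-2-ones, linear interpolation of retention times; multiple values joined by "+".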
`CCOC(=O)[C@H](CO)NC(=O)c1sc(C#N)c(Br)c1C` [1.0846]: the LogP was 2.11^[a]. Still for that read-out and setting: next, `CCOC(=O)C(CO)NC(=O)c1sc(Br)c(Cl)c1Br` (stereo not shown) [1.0847]: 2.89^[a]. In the case of `CCOC(=O)CNC(=O)c1sc(C)c(Cl)c1Cl` [1.0848], the LogP was 2.82^[a]. `COC(=O)C1(NC(=O)c2sc(Br)c(Br)c2Cl)CCC1` [1.0849]: the LogP was 3.75^[a].

Turning to `N#CCNC(=O)c1sc(Br)c(Br)c1Cl` [1.0850], the LogP is 2.67^[a].

With `COC(=O)CNC(=S)c1sc(Cl)c(Cl)c1Br` [1.0851], the LogP was 4.09^[a]. Same read-out and setting: next, `COC(=O)CNC(=S)c1sc(Br)c(Br)c1Cl` [1.0852]: 4.07^[a]. In the case of `CCOC(=O)C1(NC(=S)c2sc(Cl)c(Br)c2Cl)CCC1` [1.0853], the LogP is 5.04^[a].

On to `O=C(O)CNC(=S)c1sc(Cl)c(Cl)c1Br` [1.0854], for which the LogP was 3.11^[a]. Take `C#CCOC(=O)CNC(=O)c1sc(Br)c(Br)c1F` [1.0855]: the LogP is 2.87^[a]. Regarding `O=C(CNC(=O)c1sc(Br)c(Br)c1F)OC1CC1` [1.0856], the LogP was 3.02^[a]. For `C=CCOC(=O)CNC(=O)c1sc(Br)c(Br)c1F` [1.0857], the LogP is 3.13^[a].

`N#CCCOC(=O)CNC(=O)c1sc(Br)c(Br)c1F` [1.0858]: the LogP was 2.48^[a]. Consider `O=C(CNC(=O)c1sc(Br)c(Br)c1F)OCC1CC1` [1.0859], for which the LogP is 3.39^[a]. The same measure, in the same setting: next, `CCCCOC(=O)CNC(=O)c1sc(Br)c(Br)c1F` [1.0860]: 3.79^[a]; `O=C(O)CNC(=S)c1sc(Br)c(Br)c1Cl` [1.0861]: 3.08^[a]; `O=C(CNC(=O)c1sc(Br)c(Br)c1F)OC1CCCC1` [1.0862]: 3.84^[a]. `O=C(CNC(=O)c1sc(Br)c(Br)c1F)Oc1ccccc1` [1.0863]: the LogP is 3.58^[a]. As to `COC(=O)CNC(=S)c1sc(C#N)c(Br)c1C` [1.0864], the LogP was 2.92^[a].

Consider `CCOC(=O)C(NC(=S)c1sc(Br)c(Br)c1F)C1CC1` (stereo not shown) [1.0865], for which the LogP was 4.99^[a]. For the compound `N#CC1(NC(=O)c2sc(Br)c(Br)c2Cl)CCSCC1` [1.0868], the LogP is 3.71^[a]. `N#CC1(NC(=O)c2sc(Br)c(Br)c2F)CCSCC1` [1.0871]: the LogP is 3.40^[a]. For `CC(C#N)(NC(=O)c1sc(Br)c(Br)c1F)C1CC1` (stereo not shown) [1.0872], the LogP was 3.47^[a]. With `N#CC1(NC(=O)c2sc(Br)c(Br)c2Cl)CCC1` [1.0873], the LogP was 3.35^[a].

Regarding `CC(C)C(C#N)NC(=O)c1sc(Br)c(Br)c1Cl` (stereo not shown) [1.0874], the LogP was 3.88^[a].

On to `O=C(O)CNC(=O)c1sc(Cl)c(Br)c1Cl` [1.0875], for which the LogP is 2.18^[a]. On the same count and under the same terms, with `O=C(O)C(Cc1ccccc1)NC(=S)c1sc(Br)c(Br)c1F` (stereo not shown) [1.0876] the figure was 4.17^[a]; with `CCOC(=O)CNC(=S)c1sc(C#N)c(Br)c1C` [1.0877], 3.30^[a]. In the case of `COC(=O)CNC(=S)c1cc(Br)c(Cl)s1` [1.0878], the LogP was 3.35^[a]. With `CCCOC(=O)C1(NC(=O)c2sc(Cl)c(Cl)c2Br)CCC1` [1.0879], the LogP is 4.74^[a]. The same measure, in the same setting: next, `O=C(NC1(C(=O)OC2CCCCC2)CCC1)c1sc(Cl)c(Cl)c1Br` [1.0880]: 5.89^[a]; `NC(=S)C1(NC(=O)c2sc(Cl)c(Cl)c2Br)CC1` [1.0881]: 2.77^[a]; `CNC(=O)C1(NC(=O)c2sc(Cl)c(Cl)c2Br)CC1` [1.0882]: 2.28^[a]. Turning to `O=C(CNC(=O)c1sc(Br)c(Br)c1Cl)OC1CCOCC1` [1.0883], the LogP is 3.14^[a]. As to `CC(C)(C)OC(=O)C(NC(=O)c1sc(Br)c(Br)c1Cl)C1CC1` (stereo not shown) [1.0884], the LogP is 5.36^[a]. As for `O=C(NC(C(=O)OC1CCC1)C1CC1)c1sc(Br)c(Br)c1Cl` (stereo not shown) [1.0885], the LogP is 5.08^[a]. The same measure, in the same setting: with `CC(C)OC(=O)C(NC(=O)c1sc(Br)c(Br)c1Cl)C1CC1` (stereo not shown) [1.0886] the figure was 4.89^[a]; with `O=C(NC1(C(=O)OCC2CC2)CCC1)c1sc(Br)c(Br)c1Cl` [1.0887], 4.81^[a]; with `O=C(NC1(C(=O)OCc2ccccc2)CCC1)c1sc(Cl)c(Cl)c1Br` [1.0888], 5.00^[a]. In the case of `O=C(NC1(C(=O)OC2CCC2)CCC1)c1sc(Cl)c(Cl)c1Br` [1.0889], the LogP was 4.93^[a]. The same measure, in the same setting: next, `CCCCOC(=O)C1(NC(=O)c2sc(Cl)c(Cl)c2Br)CCC1` [1.0890]: 5.20^[a]. In the case of `CC(C)(C)OC(=O)C1(NC(=O)c2sc(Cl)c(Cl)c2Br)CCC1` [1.0891], the LogP is 5.28^[a]. `COC(=O)CNC(=O)c1sc(Cl)c(C)c1Cl` [1.0892]: the LogP was 2.64^[a].

Consider `CCOC(=O)CNC(=O)c1sc(Cl)c(C)c1Cl` [1.0893], for which the LogP is 3.07^[a]. For `NC(=O)CNC(=O)c1sc(Br)c(Br)c1F` [1.0894], the LogP was 1.69^[a]. For `N#CNC(=O)C1(NC(=O)c2sc(Br)c(Br)c2F)CC1` [1.0895], the LogP is 2.38^[a]. As to `NC(=S)CNC(=O)c1sc(Br)c(Br)c1F` [1.0896], the LogP was 2.25^[a]. Turning to `COC(=O)C1(NC(=O)c2sc(C)c(Cl)c2Cl)CC1` [1.0897], the LogP was 2.67^[a]. Consider `CC(C)(C)OC(=O)C1(NC(=O)c2sc(Br)c(Br)c2Cl)CC1` [1.0898], for which the LogP was 5.28^[a]. With `CCOC(=O)CNC(=O)c1cc(Cl)c(F)s1` [1.0899], the LogP is 2.23^[a]. As for `NC(=S)C1(NC(=O)c2sc(Br)c(Br)c2F)CC1` [1.0900], the LogP was 2.42^[a].

As to `COC(=O)C1(NC(=O)c2cc(Cl)c(F)s2)CC1` [1.0901], the LogP is 2.13^[a].

With `CC(C)(C)OC(=O)C(NC(=O)c1sc(Cl)c(Cl)c1Br)C1CC1` (stereo not shown) [1.0902], the LogP is 5.41^[a]. Take `O=C(NC(C(=O)OC1CCC1)C1CC1)c1sc(Cl)c(Cl)c1Br` (stereo not shown) [1.0903]: the LogP was 5.08^[a]. In the case of `CC(C)OC(=O)C(NC(=O)c1sc(Cl)c(Cl)c1Br)C1CC1` (stereo not shown) [1.0904], the LogP was 4.89^[a].

For the compound `O=C(NC1(C(=O)OCC2CC2)CCC1)c1sc(Cl)c(Cl)c1Br` [1.0905], the LogP was 4.78^[a]. As to `COC(=O)CNC(=O)c1cc(Cl)c(F)s1` [1.0906], the LogP is 1.90^[a]. `CCCCOC(=O)C1(NC(=O)c2sc(Br)c(Br)c2Cl)CCC1` [1.0907]: the LogP is 5.20^[a]. On to `O=C(NC1(C(=O)OC2CCC2)CCC1)c1sc(Br)c(Br)c1Cl` [1.0908], for which the LogP is 4.97^[a]. Regarding `O=C(NC1(C(=O)OCc2ccccc2)CCC1)c1sc(Br)c(Br)c1Cl` [1.0909], the LogP is 5.00^[a]. As for `C#CCOC(=O)CNC(=O)c1sc(Cl)c(Cl)c1C#N` [1.0910], the LogP is 2.58^[a]. The same measure, in the same setting: with `C#CCOC(=O)CNC(=O)c1sc(C#N)c(Cl)c1Cl` [1.0911] the figure was 2.63^[a]; with `C=CCOC(=O)C1(NC(=O)c2sc(C#N)c(Cl)c2Cl)CC1` [1.0912], 3.00^[a]. As to `C=CCOC(=O)C1(NC(=O)c2sc(Cl)c(Cl)c2C#N)CC1` [1.0913], the LogP was 2.91^[a]. For the compound `Cc1c(C(=O)NCC(N)=O)sc(C#N)c1Cl` [1.0914], the LogP was 1.34^[a]. Still for that read-out and setting: with `Cc1c(C(=O)NCC(N)=O)sc(C#N)c1Br` [1.0915] the figure was 1.38^[a]. Turning to `N#Cc1c(C(=O)NCC(N)=O)sc(Cl)c1Cl` [1.0916], the LogP is 1.47^[a]. Regarding `CCCOC(=O)C1(NC(=O)c2sc(Br)c(Br)c2Cl)CCC1` [1.0917], the LogP is 4.78^[a]. The same measure, in the same setting: next, `O=C(NC1(C(=O)OC2CCCCC2)CCC1)c1sc(Br)c(Br)c1Cl` [1.0918]: 5.89^[a]; `NC(=S)C1(NC(=O)c2sc(Br)c(Br)c2Cl)CC1` [1.0919]: 2.80^[a].

Regarding `CNC(=O)C1(NC(=O)c2sc(Br)c(Br)c2Cl)CC1` [1.0920], the LogP was 2.31^[a]. On to `O=C(NC1(C(=O)OCC2CC2)CCC1)c1sc(Br)c(Br)c1F` [1.0924], for which the LogP is 4.33^[a]. For `CC(C)(C)OC(=O)C1(NC(=O)c2sc(Br)c(Br)c2F)CCC1` [1.0925], the LogP was 4.78^[a]. With `CCCCOC(=O)C1(NC(=O)c2sc(Br)c(Br)c2F)CCC1` [1.0926], the LogP was 4.74^[a]. In the case of `O=C(NC1(C(=O)OCc2ccccc2)CCC1)c1sc(Br)c(Br)c1F` [1.0927], the LogP was 4.59^[a].

On to `CCCOC(=O)C1(NC(=O)c2sc(Br)c(Br)c2F)CCC1` [1.0928], for which the LogP was 4.30^[a]. On the same count and under the same terms, next, `O=C(NC1(C(=O)OC2CCCCC2)CCC1)c1sc(Br)c(Br)c1F` [1.0929]: 5.28^[a]; `O=C(NC1(C(=O)OC2CCC2)CCC1)c1sc(Br)c(Br)c1F` [1.0930]: 4.47^[a].

The data set is the same for the next values; noted with them: method marker [a] given with each value; Table 1.1, compounds of formula (I).
On to `CCOC(=O)CN(C(=O)c1sc(Br)c(Br)c1Cl)C1CC1` [1.0935], for which the LogP was 3.81^[a]. For `CCOC(=O)CN(C(=O)c1sc(Cl)c(Br)c1Cl)C1CC1` [1.0936], the LogP was 3.80^[a]. For `CCOC(=O)CN(C(=O)c1sc(Cl)c(Cl)c1Br)C1CC1` [1.0937], the LogP is 3.81^[a]. With `CCOC(=O)CN(C(=O)c1sc(Br)c(Br)c1F)C1CC1` [1.0938], the LogP is 3.64^[a]. Same read-out and setting: with `COC(=O)C(C)(Cc1ccccc1)NC(=O)c1sc(Br)c(Br)c1F` (stereo not shown) [1.0954] the figure was 4.64^[a]; with `COC(=O)C(Cc1ccc(Cl)cc1)NC(=O)c1sc(Br)c(Br)c1F` (stereo not shown) [1.0955], 4.52^[a]; with `C#CCOC(=O)CNC(=O)c1sc(Br)c(Br)c1Cl` [1.0959], 3.20^[a].

`O=C(CNC(=O)c1sc(Br)c(Br)c1Cl)OC1CC1` [1.0960]: the LogP was 3.39^[a]. As to `C=CCOC(=O)CNC(=O)c1sc(Br)c(Br)c1Cl` [1.0961], the LogP is 3.50^[a]. Turning to `C=CCOC(=O)C1(NC(=O)c2sc(C#N)c(Br)c2C)CC1` [1.0962], the LogP is 2.81^[a].
